These are literature values, as cited in US20200276209A1, “METHODS OF TREATING EPILEPSY OR STATUS EPILEPTICUS” (Sage Therapeutics, Inc., priority 2017, published 2020).

Molecules are shown by their SMILES. Read-outs that look alike come from different tables or passages of the source.

The data set concerns status epilepticus.

Turning to `O=C1Nc2ccc(Cl)cc2C(c2ccccc2Cl)=NC1O` (centres unmarked) [lorazepam], where the note is “intravenous (IV) treatment”, the “patients who did not respond to first line treatment” value is given as 36.6%.

In the case of `Cc1ncc2n1-c1ccc(Cl)cc1C(c1ccccc1F)=NC2` [midazolam], under “intramuscular (IM) treatment”, the “patients who did not respond to first line treatment” value is on record as 26.6%.
